Our source for the MIC values is ChEMBL document CHEMBL3393049, “Syntheses and Antituberculosis Activity of 1,3-Benzothiazinone Sulfoxide and Sulfone Derived from BTZ043” (ACS Med Chem Lett, 2015).

Structures are written as SMILES. ≈ marks a conversion by molar mass, not a printed value. Bounds are passed on as bounds.

The assay deals with Mycobacterium tuberculosis variant bovis BCG. The assay is described as follows: Antimycobacterial activity against Mycobacterium bovis BCG ATCC 35734 assessed as reduction in bacterial growth incubated for 6 days by MABA method. Type of assay: functional. The settings on record: ATCC 35734, 144 h.
A word on the MIC: it is the smallest concentration in the dilution series that meets the test's criterion for growth inhibition. In the case of `C[C@H]1COC2(CCN(c3nc(=O)c4cc(C(F)(F)F)cc([N+](=O)[O-])c4[s+]3[O-])CC2)O1` (stereo not given in full), the MIC was 0.21 µM (≈ 0.094 µg/mL).

For the molecule `CO[C@H]1/C=C/O[C@@]2(C)Oc3c(C)c(O)c4c(O)c(c(/C=N/N5CCN(C)CC5)c(O)c4c3C2=O)NC(=O)/C(C)=C\C=C\[C@H](C)[C@H](O)[C@@H](C)[C@@H](O)[C@@H](C)[C@H](OC(C)=O)[C@@H]1C` [RIFAMPIN], the minimum inhibitory concentration (MIC) amounted to 0.02 µM (≈ 0.0165 µg/mL).

For `C[C@H]1COC2(CCN(c3nc(=O)c4cc(C(F)(F)F)cc([N+](=O)[O-])c4s3)CC2)O1` [BTZ-043], the MIC was less than 0.02 µM.

Turning to `C[C@H]1COC2(CCN(C3=NC(=O)c4cc(C(F)(F)F)cc([N+](=O)[O-])c4S3(=O)=O)CC2)O1`, the MIC was greater than 1 µM.

In the case of `NNC(=O)c1ccncc1` [ISONIAZID], the MIC worked out at 0.5 µM (≈ 0.0686 µg/mL).
